In the NIST ThermoML archive (doi:10.1016/j.tca.2009.07.002):
Numbers after ± are expanded uncertainties.

Tests used:
[1] = 101 kPa, Liquid, Vibrating tube method
[2] = xn = mol fraction of the nth substance listed; settings: 101 kPa, Liquid, Vibrating tube method

Row | SMILES | mass density ([1]; 288.15 K) [kg/m3] | mass density ([1]; 293.15 K) [kg/m3] | mass density ([1]; 298.15 K) [kg/m3] | mass density ([1]; 303.15 K) [kg/m3] | mass density ([1]; 308.15 K) [kg/m3] | mass density ([1]; 313.15 K) [kg/m3] | mass density ([1]; 318.15 K) [kg/m3] | mass density ([1]; 323.15 K) [kg/m3] | mass density ([2]; 288.15 K, x2 = 0) [kg/m3] | mass density ([2]; 293.15 K, x2 = 0) [kg/m3] | mass density ([2]; 298.15 K, x2 = 0) [kg/m3] | mass density ([2]; 303.15 K, x2 = 0) [kg/m3] | mass density ([2]; 308.15 K, x2 = 0) [kg/m3] | mass density ([2]; 313.15 K, x2 = 0) [kg/m3] | mass density ([2]; 318.15 K, x2 = 0) [kg/m3] | mass density ([2]; 323.15 K, x2 = 0) [kg/m3] | further results
1 | CCCCO [butan-1-ol] | 813.373 ± 0.18 | 809.573 ± 0.18 | 805.762 ± 0.18 | 801.923 ± 0.18 | 798.053 ± 0.19 | 794.147 ± 0.19 | 790.231 ± 0.19 | 786.238 ± 0.19 | – | – | – | – | – | – | – | – | –
2 | CCCCO [butan-1-ol] + NC1CCCCC1 | – | – | – | – | – | – | – | – | – | – | – | – | – | – | – | – | mass density ([2]; 288.15 K, x1 = 1): 813.373 ± 0.18 kg/m3; mass density ([2]; 293.15 K, x1 = 1): 809.573 ± 0.18 kg/m3; mass density ([2]; 298.15 K, x1 = 1): 805.762 ± 0.18 kg/m3; mass density ([2]; 303.15 K, x1 = 1): 801.923 ± 0.18 kg/m3; mass density ([2]; 308.15 K, x1 = 1): 798.053 ± 0.19 kg/m3; mass density ([2]; 313.15 K, x1 = 1): 794.147 ± 0.19 kg/m3; mass density ([2]; 318.15 K, x1 = 1): 790.231 ± 0.19 kg/m3; mass density ([2]; 323.15 K, x1 = 1): 786.238 ± 0.19 kg/m3
3 | NC1CCCCC1 [cyclohexylamine] | 871.29 ± 0.3 | 866.747 ± 0.3 | 862.207 ± 0.3 | 857.671 ± 0.3 | 853.138 ± 0.3 | 848.607 ± 0.3 | 844.073 ± 0.3 | 839.547 ± 0.3 | – | – | – | – | – | – | – | – | –
4 | CCCCCCC [heptane] | 687.954 ± 0.23 | 683.733 ± 0.23 | 679.494 ± 0.23 | 675.229 ± 0.24 | 670.941 ± 0.24 | 666.621 ± 0.24 | 662.273 ± 0.24 | 657.896 ± 0.24 | – | – | – | – | – | – | – | – | –
5 | CCCCCCC [heptane] + CCCCO | – | – | – | – | – | – | – | – | 687.954 ± 0.23 | 683.733 ± 0.23 | 679.494 ± 0.23 | 675.229 ± 0.24 | 670.941 ± 0.24 | 666.621 ± 0.24 | 662.273 ± 0.24 | 657.896 ± 0.24 | –
6 | CCCCCCC [heptane] + NC1CCCCC1 | – | – | – | – | – | – | – | – | 687.954 ± 0.23 | 683.733 ± 0.23 | 679.494 ± 0.23 | 675.229 ± 0.24 | 670.941 ± 0.24 | 666.621 ± 0.24 | 662.273 ± 0.24 | 657.896 ± 0.24 | –
